Structures are written as SMILES. Counter-ions that a name gives are not always drawn.

This note sets out measurements from US6204293A, “Inhibitors of protein isoprenyl transferases” (University of Pittsburgh, priority 1998, dated 2001).

T1 sequence (Q02293 whole entry, one chain of several): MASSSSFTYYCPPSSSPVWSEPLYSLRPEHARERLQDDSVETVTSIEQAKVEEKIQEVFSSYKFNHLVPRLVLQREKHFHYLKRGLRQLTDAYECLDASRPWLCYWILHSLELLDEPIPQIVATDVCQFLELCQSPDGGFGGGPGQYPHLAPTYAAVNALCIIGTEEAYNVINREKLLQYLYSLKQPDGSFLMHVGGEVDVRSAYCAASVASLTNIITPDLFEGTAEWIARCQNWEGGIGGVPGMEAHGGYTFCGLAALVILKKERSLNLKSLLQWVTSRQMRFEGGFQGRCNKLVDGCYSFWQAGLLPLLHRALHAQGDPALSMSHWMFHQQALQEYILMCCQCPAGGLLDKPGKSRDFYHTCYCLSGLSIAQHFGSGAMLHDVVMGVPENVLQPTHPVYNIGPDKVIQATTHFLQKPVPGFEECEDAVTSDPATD

One test addresses T1, Rat brain protein farnesyltransferase (Rattus norvegicus, UniProt Q02293+Q04631).
T1 construct: Rat brain protein farnesyltransferase activity is measured; from tissue; host or cells: rat brain
Kind of test: % inhibition of farnesylation, scintillation proximity assay with biotin-K Ras B fragment. In kind it is biochemical. The following applies: Table 1; 1 × 10^-5 M. From the text: The ability of the compounds of the invention to inhibit protein farnesyltransferase or protein geranylgeranyltransferase can be measured according to the method of Moores, et al., J. Biol. Chem. 266: 14603 (1991) or the method of Vogt, et al., J. Biol. Chem. 270:660-664 (1995). In addition, procedures for determination of the inhibition of farnesylation of the oncogene protein Ras are described by Goldstein, et al., J. Biol. Chem., 266:15575-15578 (1991) and by Singh in U.S. Pat. No. 5,245,061.
In addition, in vitro inhibition of protein farnesyltransferase may be measured by the following procedure. Rat brain protein farnesyltransferase activity is measured using an Amersham Life Science commercial scintillation proximity assay kit and substituting a biotin-K Ras B fragment (biotin-[…]CO2 H), 0.1 mM final concentration, for the biotin-lamin substrate provided by Amersham. The enzyme is purified according to Reiss, Y., et al., Cell, 62: 81-88 (1990), utilizing steps one through three.
The % inhibition of protein farnesyltransferase was determined for representative compounds of the invention.
(In general: In a scintillation proximity assay essentially only radioactivity close to the scintillant gives light.)
For `COc1cc(Cl)ccc1C(=O)Nc1ccc(C(=O)N[C@@H](CCSC)C(=O)O)c(-c2ccccc2)c1` [Example 753], the % inhibition (as a rule, the relative decrease from the control value, in per cent) at 1 × 10^-5 M was determined as 55%.
Turning to `CSCC[C@H](NC(=O)c1ccc(CNc2ccccc2N(C)C)cc1-c1ccccc1)C(=O)O` [Example 672], the “% inhibition at 1 × 10^-5 M” value stood at 48%.
For the molecule `CSCC[C@H](NC(=O)c1ccc(CNc2cccc(CO)c2)cc1-c1ccccc1)C(=O)O` [Example 680], the “% inhibition at 1 × 10^-5 M” value is recorded as 58%.

The test is the same for the next values; noted with them: Table 2; 1 × 10^-6 M.
With `CCOC(=O)N1CCC(NCc2ccc(C(=O)N[C@@H](CCSC)C(=O)[O-])c(-c3ccccc3C)c2)CC1.[Li+]` [Example 806], the “% inhibition at 1 × 10^-6 M” value is on record as 72%.
With `CSCC[C@H](NC(=O)c1ccc(/C=C/CC2CCCCC2)cc1-c1ccccc1C)C(=O)O` [Example 471], the “% inhibition at 1 × 10^-6 M” value is on record as 94%.
Consider `CSCC[C@H](NC(=O)c1ccc(-c2cccc(-c3ccccc3)c2)cc1-c1ccccc1C)C(=O)[O-].[Li+]` [Example 787], for which the “% inhibition at 1 × 10^-6 M” value stood at 70%.
For the molecule `CSCC[C@H](NC(=O)c1ccc(CN(C)C(C)(C)Cc2ccccc2)cc1-c1ccccc1C)C(=O)O` [Example 982], the “% inhibition at 1 × 10^-6 M” value was 64%.
`CSCC[C@H](NC(=O)c1ccc(CN[C@H](C)CC2CCCCC2)cc1-c1ccccc1C)C(=O)O` [Example 613]: the “% inhibition at 1 × 10^-6 M” value amounted to 97%.
For `CSCC[C@H](NC(=O)c1ccc(CN(C(C)C)C2(CC3CCCCC3)CCC2)cc1-c1ccccc1C)C(=O)O` [Example 332], the “% inhibition at 1 × 10^-6 M” value is reported as 26%.
Take `CSCC[C@H](NC(=O)c1ccc(CN2CCCC(OCc3ccccc3)C2)cc1-c1ccccc1C)C(=O)O` (stereo partly shown) [Example 989]: the “% inhibition at 1 × 10^-6 M” value is 88%.
Take `COC(=O)[C@H](CCSC)NC(=O)c1ccc(NC(=O)[C@@H]2CSCN2)cc1-c1ccccc1.Cl` [Example 164]: the “% inhibition at 1 × 10^-6 M” value is 92%.
As for `Cc1ccccc1-c1cc(CCc2ccccc2Oc2ccccc2)ccc1C(=O)N[C@@H](CC[S+](C)[O-])C(=O)O` (stereo partly shown) [Example 456], the “% inhibition at 1 × 10^-6 M” value is listed as 81%.
For the molecule `CSCC[C@H](NC(=O)c1ccc(/C=C/c2cccc3ccccc23)cc1-c1ccccc1C)C(=O)O` [Example 466], the “% inhibition at 1 × 10^-6 M” value came out at 93%.
For `CSCC[C@H](NC(=O)c1ccc(CN(CC23CC4CC(CC(C4)C2)C3)c2ccccc2)cc1-c1ccccc1C)C(=O)O` [Example 510], the “% inhibition at 1 × 10^-6 M” value amounted to 84%.
As to `COC(=O)c1cscc1NCc1ccc(C(=O)N[C@@H](CCSC)C(=O)O)c(-c2ccccc2C)c1` [Example 724], the “% inhibition at 1 × 10^-6 M” value amounted to 87%.
For the molecule `CSCC[C@H](NC(=O)c1ccc(/C=C/c2cncnc2)cc1-c1ccccc1C)C(=O)O` [Example 494], the “% inhibition at 1 × 10^-6 M” value is reported as 96%.

Staying with this test, now noted: Table 3; 1 × 10^-7 M.
As for `CSCC[C@H](NC(=O)c1ccc(C#Cc2cncnc2)cc1-c1ccccc1C)C(=O)[O-].[Li+]` [Example 493], the “% inhibition at 1 × 10^-7 M” value was 51%.
The same measure, in the same setting: the result for `CSCC[C@H](NC(=O)c1ccc(CN[C@H](/C=C\CC(C)C)CC2CCCCC2)cc1-c1ccccc1C)C(=O)O` [Example 526] reads 96%.

Staying with this test, now noted: Table 4; 1 × 10^-8 M.
With `CCSC[C@H](CC1CCCCC1)N(C)Cc1ccc(C(=O)N[C@@H](CCSC)C(=O)O)c(-c2ccccc2C)c1` [Example 944], the “% inhibition at 1 × 10^-8 M” value worked out at 88%.
Consider `COc1ccc(N(Cc2ccccc2)Cc2ccc(C(=O)N[C@@H](CCSC)C(=O)O)c(-c3ccccc3C)c2)cc1` [Example 840], for which the “% inhibition at 1 × 10^-8 M” value was found to be 73%.
The same measure, in the same setting: the result for `CSCC[C@H](NC(=O)c1ccc(CN(Cc2ccccc2)c2ccc([N+](=O)[O-])cc2)cc1-c1ccccc1C)C(=O)O` [Example 843] reads 96%; that for `CSCC[C@H](NC(=O)c1ccc(CN(c2ccccc2)S(=O)(=O)c2ccc(C(F)(F)F)cc2)cc1-c1ccccc1C)C(=O)O` [Example 780], 71%; that for `CSCC[C@H](NC(=O)c1ccc(CN(Cc2ccccc2)c2cccc(C(C)=O)c2)cc1-c1ccccc1C)C(=O)O` [Example 845], 85%.

Still in this test, the particulars now being: read-out: % inhibition at 0.01 μM (**); Table 6; ** footnote 0.01 μM (title: 0.01 mM).
`CSCC[C@H](NC(=O)c1ccc(CO[C@@H](CC2CCCCC2)C(=O)N2CCOCC2)cc1-c1ccccc1C)C(=O)O` [Example 1053, N-[4-(3-cyclohexyl-N-morpholin-4-ylpropion-2-yloxymethyl)-2-(2-methylphenyl)benzoyl]methionine, lithium salt]: the inhibition – broadly, the percentage by which the read-out fell short of the control – at 0.01 µM is 60%.
For `CSCC[C@H](NC(=O)c1ccc(COC(CC2CCCCC2)c2scnc2C)cc1-c1ccccc1C)C(=O)O` (stereo partly shown) [Example 1097, N-[4-(1-(4-methylthiazol-5-yl)-2-cyclohexylethoxy)methyl)-2-(2-methylphenyl)benzoyl]methionine lithium salt], the inhibition at 0.01 µM was 80%.
Regarding `CCCCSC[C@H](CC1CCCCC1)OCc1ccc(C(=O)N[C@@H](CCSC)C(=O)O)c(-c2ccccc2C)c1` [Example 1312, N-[4-(1-Butylthio-3-cyclohexylprop-2-yloxymethyl)-2-(2-methylphenyl)benzoyl]methionine Lithium Salt], the inhibition at 0.01 µM was determined as 91%.

Still in this test, the particulars now being: read-out: % inhibition at 0.1 μM (*).
Turning to `CCCCC(OCc1ccc(C(=O)N[C@@H](CCSC)C(=O)O)c(-c2ccccc2C)c1)c1cccc(OC)c1` (stereo partly shown) [Example 1208, N-[4-(1-(3-Methoxyphenyl)pentan-1-yloxymethyl)-2-(2-methylphenyl)benzoyl]methionine lithium salt], the inhibition at 0.1 µM is 89%.

Staying with this test, now noted: read-out: % inhibition at 0.1 μM (*); Table 6; * footnote 0.1 μM (title: 0.1 mM).
For the molecule `CSCC[C@H](NC(=O)c1ccc(CO[C@H](COCC2COC(C)(C)O2)CC2CCCCC2)cc1-c1ccccc1C)C(=O)O` (stereo partly shown) [Example 1346, N-[4-(3-Cyclohexyl-1-(2,2-dimethyl-1,3-dioxolan-4-methanoxy)prop-2-yloxymethyl)-2-(2-methylphenyl)benzoyl]methionine, Lithium Salt], the inhibition at 0.1 µM turned out to be 94%.

The test is the same for the next values; noted with them: read-out: % inhibition at 1 × 10^-6 M.
In the case of `CSCC[C@H](NC(=O)c1ccc(CSCc2ccc(C)cc2)cc1-c1ccccc1C)C(=O)O` [Example 556, N-[4-(4-methylbenzyl)thiomethyl-2-(2-methylphenyl)benzoyl]methionine, lithium salt], the inhibition at 1 µM turned out to be 99%.
Regarding `CSCC[C@H](NC(=O)c1ccc(OCCOC2CCCCC2)cc1-c1ccccc1C)C(=O)O` [Example 565, N-[4-(2-cyclohexyloxy)ethoxy-2-(2-methylphenyl)benzoyl]methionine, lithium salt], the inhibition at 1 µM stood at 94%.

The same test, now with this note: read-out: % inhibition at 1 × 10^-7 M.
As to `CCCCC(OCc1ccc(C(=O)N[C@@H](CCSC)C(=O)O)c(-c2ccccc2C)c1)c1ccco1` (stereo partly shown) [Example 825, N-[4-(1-furan-2-ylpentyloxymethyl)-2-(2-methylphenyl)benzoyl]methionine lithium salt], the inhibition at 0.1 µM turned out to be 79%.
As to `COc1cccc(-c2ccc(COCc3ccc(C(=O)N[C@@H](CCSC)C(=O)O)c(-c4ccccc4C)c3)o2)c1` [Example 442, N-[4-(5-(3-methoxyphenyl)furan-2-ylmethoxymethyl)-2-(2-methylphenyl)benzoyl]methionine lithium salt], the inhibition at 0.1 µM worked out at 88%.
Consider `CSCC[C@H](NC(=O)c1ccc(COCc2cnco2)cc1-c1ccccc1C)C(=O)O` [Example 891, N-[4-(oxazol-5-ylmethoxymethyl)-2-(2-methylphenyl)benzoyl]methionine lithium salt], for which the inhibition at 0.1 µM came out at 94%.

The test is the same for the next values; noted with them: read-out: % inhibition at 1 × 10^-7 M; Table 3; 1 × 10^-7 M.
`CSCC[C@H](NC(=O)c1ccc(COc2ccc3ccccc3c2)cc1-c1ccccc1C)C(=O)O` [Example 573, N-[4-(naphth-2-yloxymethyl)-2-(2-methylphenyl)benzoyl]methionine]: the inhibition at 0.1 µM is 72%.
On to `CSCC[C@H](NC(=O)c1ccc(CSc2ncnc3[nH]ncc23)cc1-c1ccccc1C)C(=O)O` [Example 746], for which the inhibition at 0.1 µM is 84%.
As for `CSCC[C@H](NC(=O)c1ccc(CSC2=NCCS2)cc1-c1ccccc1C)C(=O)O` [Example 730], the inhibition at 0.1 µM turned out to be 96%.
The same measure, in the same setting: the result for `CSCC[C@H](NC(=O)c1ccc(COCc2ccccc2)cc1-c1ccccc1C)C(=O)NS(=O)(=O)c1ccc(Cl)cc1` [Example 581, 4-chlorobenzenesulfonyl N-2-[4-(benzyloxymethyl)-2-(2-methylphenyl)benzoyl]amino-4-methylthiobutanamide] reads 96%.

Still in this test, the particulars now being: read-out: % inhibition at 1 × 10^-8 M.
On to `CCCCC(OCc1ccc(C(=O)N[C@@H](CCSC)C(=O)O)c(-c2ccccc2C)c1)c1ccc(-c2ccc(Cl)cc2)o1` (stereo partly shown) [Example 826, N-[4-(1-(5-(4-chlorophenyl)furan-2-yl)pentyloxymethyl)-2-(2-methylphenyl)benzoyl]methionine lithium salt], for which the inhibition at 0.01 µM turned out to be 92%.
Take `CSCC[C@H](NC(=O)c1ccc(COCc2cnc(-c3cccc(F)c3)s2)cc1-c1ccccc1C)C(=O)O` [Example 898, N-[4-(2-(3-fluorophenyl)thiazol-5-ylmethoxymethyl)-2-(2-methylphenyl)benzoyl]methionine lithium salt]: the inhibition at 0.01 µM was found to be 82%.
On to `CSCC[C@H](NC(=O)c1ccc(COCCc2ccc(Cl)cc2Cl)cc1-c1ccccc1C)C(=O)O` [Example 591, N-[4-(2-(2,4-dichlorophenyl)ethoxymethyl)-2-(2-methylphenyl)benzoyl]methionine lithium salt], for which the inhibition at 0.01 µM amounted to 82%.
